Reference: patent US6361773B1, “Antibodies produced against cytokine suppressive anti-inflammatory drug binding proteins” (SmithKline Beecham Corporation, priority 1993, dated 2002)
Read-outs that look alike come from different tables or passages of the source.

Columns and labels:
[1] = system: IL-1 production in human monocytes; test: CSAIDs bioassay (IL-1 dependent EL-4/IL2 induction assay, LPS-stimulated human monocytes); type: cell-based; settings: Monocyte
Experimental: The biological assay employed to evaluate CSAIDs activity was the IL-1 dependent EL-4/IL2 induction assay (Simon, P. L. et al., J. Immuno. Meth. 84: 85-94 (1985)). Briefly, Human monocytes were plated in 24-well plates in LPS-free RPMI 1640 media containing 1% human AB serum at a concentration of 10^6 per millilitre per well and allowed to adhere for 1 h at 37° C.; non-adherent cells were removed by gentle washing. Test compounds or media were added to the cells 0 or 1 h before the addition of bacterial lipopolysaccharide (E. coli 001:B4; Difco, Detroit) at 10 ng/ml. The cultures were then incubated at various intervals as indicated at 37° C. in a humidified 5% CO2 atmosphere. At the end of the incubation period, culture supernatants were collected. The residual adherent monocytes were lysed in a buffer containing 0.15M octyl-glucopyranoside, 25 mM Hepes, and 0.5 mM phenylmethylsulfonylfluoride in saline. Both supernatants and cell lysates were clarified by centrifugation and assayed for IL-1 activity.
IL-1 activity was measured by its ability to stimulate the secretion of IL-2 by EL-4 (ATCC TIB181) cells in the presence of A23187 ionophore. Serial dilutions of the samples were incubated with 10^5 EL-4 cells in the presence of 2×10^−7 M calcium ionophore A23187. After overnight incubation, 0.1 ml of a cell-free supernatant from each culture was taken and incubated with 10^4 IL-2-dependent […] (ATCC-T11B214) cells. Following an additional 20 hours of incubation, the cultures were pulsed with 1 μCi of tritiated thymidine for 4 h. The cells were then harvested onto glass-fibre filters and the radioactivity deterrnined by liquid scintillation counting.

[2] = molecular target: T1, CSAID binding protein (CSBP) in THP.1 cytosol (Homo sapiens, UniProt Q16539); test: CSAID binding assay with 3H-Compound I and THP.1 cytosol
T1 construct: endogenous in cells; host or cells: THP.1 (ATCC TIB 202), cytosolic fraction (100,000 x g supernatant)

[3] = Table II, read-out: IC50 in competitive CSAID binding assay

T1 sequence (Q16539 whole entry): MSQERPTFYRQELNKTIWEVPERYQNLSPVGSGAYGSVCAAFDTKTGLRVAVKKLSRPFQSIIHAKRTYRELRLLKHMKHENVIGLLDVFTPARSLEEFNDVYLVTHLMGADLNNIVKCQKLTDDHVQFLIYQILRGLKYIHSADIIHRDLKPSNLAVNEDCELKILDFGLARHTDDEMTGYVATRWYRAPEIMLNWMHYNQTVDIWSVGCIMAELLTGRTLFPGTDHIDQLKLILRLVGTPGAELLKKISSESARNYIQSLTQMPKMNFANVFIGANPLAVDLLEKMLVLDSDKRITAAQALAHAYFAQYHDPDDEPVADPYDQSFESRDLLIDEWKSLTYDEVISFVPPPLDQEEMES

| Structure (SMILES) | IC50 ([1]; read-out: IC50 in the bioassay) | IC50 [2, 3] | other results |
| --- | --- | --- | --- |
| [N-]=[N+]=Nc1ccc(-c2nc(-c3cccc([125I])c3)c(-c3ccncc3)[nH]2)cc1 [Compound IV, 4-[2-(4-azidophenyl)-5-(3-^125Iodo-phenyl)-1H-imidazol-4-yl]pyridine] |  |  | IC50 ([1]; read-out: IC50 in a CSAIDs bioassay): 3 µM; IC50 ([2]; read-out: IC50 in a competitive binding assay): 0.5 to 0.8 µM |
| N#Cc1ccc(-c2nc(-c3ccc(F)cc3)c(-c3ccnc4ccccc34)n2O)cc1 [Compound VII] | 0.02 µM |  |  |
| CC(Cc1ccc(O)c(O)c1)C(C)Cc1ccc(O)c(O)c1 (stereo not drawn) [NDGA] |  | 154 µM |  |
| NC(=O)N1C(=O)/C(=C(\O)c2cccs2)c2cc(Cl)ccc21 [Tenidap] |  | 139 µM |  |
| CCc1nc(-c2ccc(OC)cc2)[nH]c1-c1ccncc1 [Compound VIII] | > 5 µM |  |  |
